Results from US7144586B2, “Compositions for preventing hormone induced adverse effects” (Lycored Natural Products Industries Ltd., priority 2000, dated 2006).
Entries after “also recorded” stand apart in the source; their conditions may differ.

Columns and labels:
[1] = system: estrogen receptor-positive human breast cancer cell lines; conditions: approximately 0.1 to 2–3 μM; cited from earlier work
[2] = system: estrogen receptor negative human breast cancer cell lines; conditions: approximately 0.1 to 2–3 μM; cited from earlier work
[3] = system: ECC-1 endometrial cancer cells; experiment: ECC-1 endometrial cancer cell proliferation assay ([3H]thymidine incorporation); assay type: cell-based, human; conditions: for genistein-induced cell proliferation: stimulated by genistein at 1 MM (FIG. 4); for cell proliferation ([3H]thymidine incorporation into DNA): 0.4 and 4 μM, after three days (FIG. 1, panel A); for inhibition of cell proliferation: higher, non-physiological concentrations (10 μM), after three days in culture (FIG. 1, panel A); for effect on endometrial cancer cell growth over the concentration range: increasing concentrations, low to high
Method: (§1) Tetrahydrofuran (THF) containing 0.25% butylated hydroxytoluene was added to purified carotenoids as an antioxidant. Carotenoids were dissolved in THF at a concentration of 2 mMM and stored at −70 C. Immediately before use, stock solutions were thawed and added to the cell culture medium under nitrogen, followed by vigorous stirring. Precipitates formed were removed by filtration through Millex-HV filter (Millipore). Final carotenoid concentrations in the medium were determined by spectrophotometry after extraction in 2-propanol and n-hexane:dichloronomethane, as in U.S. Pat. No. 5,827,900.
(§2) The human endometrial cancer (estrogen dependent) cell line ECC-1 was developed by Dr. P. G. Satyaswaroop, Pennslyvania State University, Pennsylvania, U.S.A, and generously provided to us by Dr. R. Oregan, Northwestern University, Chicago, Ill., U.S.A. Human mammary cancer cell lines MCF-7 (estrogen dependent) and MDA-231 (hormone independent) were obtained from the American Type Culture Collection (Rockville, Md.).
(§3) Cells were cultured in DMEMM containing penicillin (100 U/ml), streptomycin (0.1 mg/ml)) nystatin (12.5 (g/ml), insulin (0.6 (g/ml), and 10% FCS. Cells were stripped of endogenous steroids according to the procedure of Vignon et al. (1987, Biochem. Biophys. Res. Comm., 146:1502–8) by successive passages in medium without phenol red containing 10% and then 3% of charcoal-stripped FCS. Cells were seeded into 96 multiwell plates (5,000 cells per well) in DMEMM containing 3% of charcoal-stripped FCS. After one day the medium was changed to one containing the solubilized carotenoid or THF alone. The medium was changed daily to ensure a continuous supply of carotenoid.
(§4) After incubation, the number of cells and the rate of cell proliferation were estimated by the incorporation of [^3H]thymidine incorporation into cellular DNA, as described in U.S. Pat. No. 5,827,900. Cell growth was also measured by direct cell counting with a Coulter counter after trypsinization and dilution in Isotone-II (Coulter Electronics, Luton, England). A good correlation was found between the two methods.
ECC-1 cells were incubated with increasing concentrations of the isoflavones genistein and daidzein, the two primary isoflavones in soy products, and with soy extract. Cell proliferation after three days was measured by [^3H]thymidine incorporation into DNA (FIG. 1, panel A).
ECC-1 cells were also incubated with a single high concentration (40 μM) of each of genistein, daidzein and soy extract. Cell proliferation was assayed daily over the course of three days.
(§5) The comparative effects of estradiol and genistein supplementation on the proliferation of the hormone-dependent cell lines MCF-7 mammary cancer and ECC-1 endometrial cancer were examined (FIG. 2).
(§6) Cell cultures stimulated either by genistein or estradiol, as described above, were further supplemented with lycopene and assayed for cell proliferation after three days in culture.
The ECC-1 hormone-dependent cell line was stimulated either by estradiol at 10 nM (FIG. 4, left panel) or by genistein at 1 MM (FIG. 4, panel B) and test cultures were additionally supplemented with various carotenoids.
The hormone-dependent endometrial cancer cell line ECC-1 was stimulated either by estradiol at 10 nM (FIG. 5, left panel) or by genistein at 1 μM (FIG. 5, right panel) and test cultures were additionally supplemented with various concentrations of lycopene. […] The lowest lycopene concentration tested (0.9 μM) is in the physiological range found in human serum.

[4] = system: rodent models (rat colon and oral carcinogenesis); conditions: dietary administration; cited from earlier work
[5] = system: MCF-7 mammary cancer cells (estrogen dependent); experiment: MCF-7 mammary cancer cell proliferation assay ([3H]thymidine incorporation); assay type: cell-based, human; conditions: for phytoestrogen-induced cell proliferation: genistein (4 (M))
Method: as §1, §2, §3, §4, §5, §6
Thus genistein not only stimulates hormone-dependent cancer cell proliferation, but IGF-I as well as other growth factors further augment this effect.
Cell cultures supplemented as above were further supplemented with lycopene at 3 to 5 μM concentration.

[6] = system: MDA-231 mammary cancer cells (hormone independent); experiment: MDA-231 mammary cancer cell proliferation assay ([3H]thymidine incorporation); assay type: cell-based, human
Method: as §1, §2, §3
as §4, with “methods. […]” for “methods.”

[7] = high, non-physiological carotenoid concentrations, about one order of magnitude greater than physiological (FIG. 6, panel B)
[8] = single high concentration (40 μM), after one day of incubation (FIG. 1, panel B)
[9] = lycopene at 3 to 5 μM, three days in culture (FIG. 2)
[10] = lycopene at 3 to 5 μM, IGF-1 30 nM (FIG. 3)

Q: For `COc1ccc(-c2coc3cc(O)cc(O)c3c2=O)cc1` [biochanin A], which cell proliferation [1] is on record?
A: induce cell proliferation

Q: What about the cell proliferation [2] of the same molecule?
A: not in estrogen receptor negative

Q: Which genistein-induced cell proliferation [3] does the source give for `CC1=C(/C=C/C(C)=C/C=C/C(C)=C/C=C/C=C(C)/C=C/C=C(C)/C=C/C2=C(C)C(=O)[C@@H](O)CC2(C)C)C(C)(C)C[C@H](O)C1=O` [astaxanthin] here?
A: effective inhibitors; also recorded: effectively inhibited

Q: What about the “anti-tumorigenic effects in vivo” value [4] of the same molecule?
A: anti-tumorigenic effects

Q: Which results are given for `CC(C)=CCC/C(C)=C/CC/C(C)=C/CC/C(C)=C/C=C/C=C(\C)CC/C=C(\C)CC/C=C(\C)CCC=C(C)C` [phytoene]?
A: genistein-induced cell proliferation [3]: effective inhibitors; phytoestrogen-induced cell proliferation [5, 7]: effective in significantly inhibiting

Q: Which cell proliferation [1] does the source give for `O=c1c(O)c(-c2ccc(O)cc2)oc2cc(O)cc(O)c12` [kaempferl] here?
A: induce cell proliferation

Q: What about the cell proliferation [2] of the same molecule?
A: not in estrogen receptor negative

Q: Which cell proliferation [1] does the source give for `O=c1cc(-c2ccc(O)c(O)c2)oc2cc(O)cc(O)c12` [luiolin] here?
A: induce cell proliferation

Q: And the cell proliferation [2]?
A: not in estrogen receptor negative

Q: For `O=c1c(-c2ccc(O)cc2)coc2cc(O)ccc12` [daidzein, reference compound], which “cell proliferation ([3H]thymidine incorporation into DNA)” value [3] is on record?
A: significant increase in cell proliferation rate; also recorded: stimulated cell proliferation

Q: And the “inhibition of cell proliferation” value [3]?
A: not

Q: What about the “effect on endometrial cancer cell growth over the concentration range” value [3] of the same molecule?
A: only stimulatory

Q: And the cell proliferation [3, 8]?
A: significantly increases cell proliferation; also recorded: stimulated cell proliferation

Q: Which results are given for `O=c1c(-c2ccc(O)cc2)coc2cc(O)cc(O)c12` [genistein, reference compound]?
A: cell proliferation ([3]; 40 μM, by the second day in culture (FIG. 1, panel B)): inhibitory effects; cell proliferation ([3H]thymidine incorporation into DNA) [3]: significant increase in cell proliferation rate; also recorded: stimulated cell proliferation; inhibition of cell proliferation [3]: inhibited cell proliferation; effect on endometrial cancer cell growth over the concentration range [3]: biphasic effects on proliferation; cell proliferation [3, 8]: significantly increases cell proliferation; also recorded: stimulated cell proliferation; stimulatory effect of genistein in the presence of IGF-I ([5]; genistein plus IGF-1 30 nM, compared to genistein only (FIG. 3, panel A)): significantly increases the cell proliferation rate; also recorded: further augmented; effect on proliferation over the concentration range ([5]; stimulating at low, inhibiting at high concentrations (FIG. 2, panel A)): biphasic effects on proliferation; cell proliferation [1]: induce cell proliferation; cell proliferation [2]: not in estrogen receptor negative

Q: With `CC1=C(/C=C/C(C)=C/C=C/C(C)=C/C=C/C=C(C)/C=C/C=C(C)/C=C/C2=C(C)CCCC2(C)C)C(C)(C)CCC1` [beta-carotene] as the molecule, how does the genistein-induced cell proliferation [3] read?
A: effective inhibitors; also recorded: effectively inhibited

Q: With `O=c1oc2cc(O)ccc2c2oc3cc(O)ccc3c12` [counestrol] as the molecule, how does the cell proliferation [1] read?
A: induce cell proliferation

Q: And the cell proliferation [2]?
A: not in estrogen receptor negative

Q: Which cell growth ([5]; IGF-1 30 nM (FIG. 3, panel A)) does the source give for “IGF-1: Human recombinant IGF-1 purchased from GroPep” here?
A: significantly stimulates cell growth

Q: And the cell growth ([6]; IGF-1 30 nM (FIG. 3, panel B))?
A: significantly stimulates cell growth

Q: With `CC(C)=CCC/C(C)=C/C=C/C(C)=C/C=C/C(C)=C/C=C/C=C(C)/C=C/C=C(C)/C=C/C=C(\C)CCC=C(C)C` [lycopene] as the molecule, how does the “estradiol-induced cell proliferation, dose dependence” value ([3]; estradiol at 10 nM, various lycopene concentrations, lowest 0.9 μM (FIG. 5)) read?
A: inhibits, in a dose dependent manner; also recorded: effective in inhibiting

Q: What about the “genistein-induced cell proliferation, dose dependence” value ([3]; genistein at 1 μM, various lycopene concentrations, lowest 0.9 μM (FIG. 5)) of the same molecule?
A: inhibits, in a dose dependent manner; also recorded: effective in inhibiting

Q: And the basal growth [3, 9]?
A: significantly inhibited

Q: And the estradiol-induced growth [3, 9]?
A: significantly inhibited

Q: And the genistein-induced growth [3, 9]?
A: substantially inhibited; also recorded: significantly inhibited

Q: What about the genistein-induced cell proliferation [3] of the same molecule?
A: effective inhibitors; also recorded: effectively inhibited

Q: What about the phytoestrogen-induced cell proliferation [5, 7] of the same molecule?
A: effective in significantly inhibiting

Q: And the phytoestrogen-induced cell proliferation ([5]; low (physiological) concentrations: lycopene 0.4 μM, phytoene and phytofluene mixture 6 μM (FIG. 6, panel A))?
A: do not significantly affect

Q: What about the basal growth [5, 9] of the same molecule?
A: significantly inhibited

Q: And the estradiol-induced growth [5, 9]?
A: significantly inhibited

Q: And the “IGF stimulation of cell proliferation (IGF-1 and genistein)” value [5, 10]?
A: inhibits the cell proliferation; also recorded: inhibits IGF stimulation

Q: And the genistein-induced growth ([5]; lycopene at 3 to 5 MM, three days in culture (FIG. 2))?
A: substantially inhibited; also recorded: significantly inhibited

Q: And the “IGF stimulation of cell proliferation” value [6, 10]?
A: inhibits IGF stimulation

Q: And the “cell proliferation relative to controls” value [6, 10]?
A: reduced to levels less than that of controls
